# Results as given in US20250171430A1, “PYRAZOLYL COMPOUNDS AS KV7 CHANNEL ACTIVATORS” (Biohaven Therapeutics Ltd., priority 2022, published 2025).
# Target: T1, Kv7.2/7.3 (Homo sapiens, UniProt O43525+O43526)
# T1 construct: Kv7.2 tetracycline-induced, Kv7.3 constitutive
# Test: Kv7.2/7.3 Activation Assay (Thallium Flux Assay)
# Assay type: cell-based
# Details: hKV7.2/7.3 cell line; test compound at single concentration of 10 μM; fluorescence at 90 sec normalized to positive control (retigabine, 30 μM)
# How it was run: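 Single-point activity at 10 μM (0.1% DMSO, HEPES-buffered saline, pH 7.4) was scored from fluorescence at 90 s relative to 30 μM retigabine. Categories were none <0.15, moderate 0.15-0.7 and high >0.7. Thallium influx after stimulus addition was followed with FluxOR II Green dye in hKv7.2/7.3 cells, Kv7.2 expressed under overnight tetracycline (10 ng/mL) induction.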
row,SMILES,Kv7.2/7.3 Activity
1,"Cn1nc(NC(=O)NC2CC(F)(F)C2)c(C2CCC2)c1C1CC(F)(F)C1 [Compound 290, 1-(4-cyclobutyl-5-(3,3-difluorocyclobutyl)-1-methyl-1H-pyrazol-3-yl)-3-(3,3-difluorocyclobutyl)urea]",++ (“++” High Activity ≥ 0.7)
2,"Cn1nc(NC(=O)CC2CC(F)(F)C2)c(C2CCC2)c1-c1ccc(F)cc1 [Compound 74, N-(4-cyclobutyl-5-(4-fluorophenyl)-1-methyl-1H-pyrazol-3-yl)-2-(3,3-difluorocyclobutyl)acetamide]",++ (“++” High Activity ≥ 0.7)
3,"CCn1nc(NC(=O)CC(C)(C)C)c(C2CC2)c1C [Compound 7, N-(4-cyclopropyl-1-ethyl-5-methyl-1H-pyrazol-3-yl)-3,3-dimethylbutanamide]",+ (“+” Moderate Activity 0.15-0.7)
4,"Cn1nc(NC(=O)C2CSC2)c(C2CCC2)c1-c1ccc(Cl)s1 [Compound 248, N-(5-(5-chlorothiophen-2-yl)-4-cyclobutyl-1-methyl-1H-pyrazol-3-yl)thietane-3-carboxamide]",++ (“++” High Activity ≥ 0.7)
5,"Cn1nc(NC(=O)C2CSC2)c(C2CCC2)c1-c1cc(F)cc(F)c1 [Compound 257, N-(4-cyclobutyl-5-(3,5-difluorophenyl)-1-methyl-1H-pyrazol-3-yl)thietane-3-carboxamide]",++ (“++” High Activity ≥ 0.7)
6,"Cn1nc(NC(=O)C[C@H]2CC(F)(F)C2(F)F)c(C2CCC2)c1-c1ccc(OC(F)(F)F)cc1 [Compound 33, (S)-N-(4-cyclobutyl-1-methyl-5-(4-(trifluoromethoxy)phenyl)-1H-pyrazol-3-yl)-2-(2,2,3,3-tetrafluorocyclobutyl)acetamide]",++ (“++” High Activity ≥ 0.7)
7,"Cn1nc(NC(=O)C[C@@H]2CC(F)(F)C2(F)F)c(C2CCC2)c1-c1ccc(F)cc1 [Compound 14, (R)-N-(4-cyclobutyl-5-(4-fluorophenyl)-1-methyl-1H-pyrazol-3-yl)-2-(2,2,3,3-tetrafluorocyclobutyl)acetamide]",++ (“++” High Activity ≥ 0.7)
8,"Cn1nc(NC(=O)C2(C)CC(F)(F)C2)c(C2CCC2)c1-c1ccc(Cl)cc1 [Compound 221, N-(5-(4-chlorophenyl)-4-cyclobutyl-1-methyl-1H-pyrazol-3-yl)-3,3-difluoro-1-methylcyclobutane-1-carboxamide]",+ (“+” Moderate Activity 0.15-0.7)
9,"Cn1nc(NC(=O)[C@H]2CC2(F)F)c(C2CCC2)c1-c1ccccc1F [Compound 161, (R)-N-(4-cyclobutyl-5-(2-fluorophenyl)-1-methyl-1H-pyrazol-3-yl)-2,2-difluorocyclopropane-1-carboxamide]",+ (“+” Moderate Activity 0.15-0.7)
10,"Cn1nc(NC(=O)C2(C(F)(F)F)CC2)c(C2CC2)c1-c1ccc(F)cc1 [Compound 165, N-(4-cyclopropyl-5-(4-fluorophenyl)-1-methyl-1H-pyrazol-3-yl)-1-(trifluoromethyl)cyclopropane-1-carboxamide]",++ (“++” High Activity ≥ 0.7)
11,"Cn1nc(NC(=O)C[C@H]2CC(F)(F)C2(F)F)c(C2CCC2)c1-c1ccc(F)cc1 [Compound 21, (S)-N-(4-cyclobutyl-5-(4-fluorophenyl)-1-methyl-1H-pyrazol-3-yl)-2-(2,2,3,3-tetrafluorocyclobutyl)acetamide]",++ (“++” High Activity ≥ 0.7)
12,"Cn1nc(NC(=O)OC2CC(F)(F)C2)c(C2CCC2)c1-c1cc(F)cc(F)c1 [Compound 269, 3,3-difluorocyclobutyl (4-cyclobutyl-5-(3,5-difluorophenyl)-1-methyl-1H-pyrazol-3-yl)carbamate]",++ (“++” High Activity ≥ 0.7)
13,"Cn1nc(NC(=O)Cc2ccc(F)c(F)c2)c(C2CCC2)c1C1(C(F)(F)F)CCC1 [Compound 90, N-(4-cyclobutyl-1-methyl-5-(1-(trifluoromethyl)cyclobutyl)-1H-pyrazol-3-yl)-2-(3,4-difluorophenyl)acetamide]",+ (“+” Moderate Activity 0.15-0.7)
14,"CC(C)c1c(NC(=O)CC2(C(F)(F)F)CC2)nn(C)c1-c1ccc(OC(F)(F)F)cc1 [Compound 26, N-(4-isopropyl-1-methyl-5-(4-(trifluoromethoxy)phenyl)-1H-pyrazol-3-yl)-2-(1-(trifluoromethyl)cyclopropyl)acetamide]",++ (“++” High Activity ≥ 0.7)
15,"Cn1nc(NC(=O)C[C@@H]2CC(F)(F)C2(F)F)c(C2CCC2)c1-c1noc2ccccc12 [Compound 18, (R)-N-(5-(benzo[d]isoxazol-3-yl)-4-cyclobutyl-1-methyl-1H-pyrazol-3-yl)-2-(2,2,3,3-tetrafluorocyclobutyl)acetamide]",++ (“++” High Activity ≥ 0.7)
16,"Cn1nc(NC(=O)CCC(F)(F)C(F)(F)F)c(C2CCC2)c1-c1ccc(F)cc1 [Compound 101, N-(4-cyclobutyl-5-(4-fluorophenyl)-1-methyl-1H-pyrazol-3-yl)-4,4,5,5,5-pentafluoropentanamide]",++ (“++” High Activity ≥ 0.7)
17,"Cn1nc(NC(=O)C[C@H]2CC(F)(F)C2(F)F)c(C2CCC2)c1C1CCCCC1 [Compound 67, (S)-N-(4-cyclobutyl-5-cyclohexyl-1-methyl-1H-pyrazol-3-yl)-2-(2,2,3,3-tetrafluorocyclobutyl)acetamide]",+ (“+” Moderate Activity 0.15-0.7)
18,"Cn1nc(NC(=O)C(C)(O)c2ccccc2)c(C2CCC2)c1-c1ccc(OC(F)(F)F)cc1 (stereo not shown) [Compound 181, N-(4-cyclobutyl-1-methyl-5-(4-(trifluoromethoxy)phenyl)-1H-pyrazol-3-yl)-2-hydroxy-2-phenylpropanamide]",− (“−” No Activity < 0.15)
19,"CCn1nc(NC(=O)Cc2cc(F)cc(F)c2)c(C2CC2)c1C [Compound 3, N-(4-cyclopropyl-1-ethyl-5-methyl-1H-pyrazol-3-yl)-2-(3,5-difluorophenyl)acetamide]",++ (“++” High Activity ≥ 0.7)
20,"Cn1nc(NC(=O)C2CC(F)(F)C2)c(C2CCC2)c1-c1ccc(OC(F)F)nc1 [Compound 272, N-(4-cyclobutyl-5-(6-(difluoromethoxy)pyridin-3-yl)-1-methyl-1H-pyrazol-3-yl)-3,3-difluorocyclobutane-1-carboxamide]",+ (“+” Moderate Activity 0.15-0.7)
21,"Cn1nc(NC(=O)C2COC2)c(C2CCC2)c1-c1ccc(F)c(F)c1 [Compound 278, N-(4-cyclobutyl-5-(3,4-difluorophenyl)-1-methyl-1H-pyrazol-3-yl)oxetane-3-carboxamide]",− (“−” No Activity < 0.15)
22,"Cn1nc(NC(=O)C2CC(F)(F)C2)c(C2CCC2)c1-c1ccc(OC(F)(F)F)cc1 [Compound 189, N-(4-cyclobutyl-1-methyl-5-(4-(trifluoromethoxy)phenyl)-1H-pyrazol-3-yl)-3,3-difluorocyclobutane-1-carboxamide]",+ (“+” Moderate Activity 0.15-0.7)
